Values after ≈ are worked out from the molar mass of the structure shown. Where two headings read alike, the source gives them in different places.
Legend:
Candida albicans = experiment: In vitro fungicidal activity vs. Candida albicans
C. guilliermondii = experiment: In vitro antifungal activity vs. yeasts (MIC/MFC); type: cell-based; conditions: Meyerozyma guilliermondii, C. guilliermondii (n = 1)
all dermatophyte strains = experiment: MIC and MFC range over all dermatophyte strains tested; type: cell-based, dermatophytes; conditions: Table 14 strains
[1] = tested on: Enterobacter faecalis 29212; experiment: In vitro Antibacterial Activity; type: cell-based
T. rubrum = experiment: In vitro antifungal activity vs. dermatophytes (MIC/MFC); type: cell-based; conditions: T. rubrum (n = 15)
Microsporum canis = experiment: as above; type: cell-based; conditions: Microsporum canis (n = 15)
[2] = tested on: T. rubrum, Terbinafine resistant isolates; experiment: as above; type: cell-based
Trichophyton tonsurans = experiment: as above; type: cell-based; conditions: Trichophyton tonsurans (n = 15)
yeasts = experiment: MFC range over yeasts tested; type: cell-based, Candida and Malassezia strains; conditions: Table 13 strains
Description: The fungal isolates tested in this study to evaluate the antifungal activity of (Z)-14-([…]-11,13-diynoic acid, 14-([…]-11,13-diynoic acid, (Z)-14-([…]-11,13-diynoic acid, potassium salt and comparators are clinical isolates collected from patients and deposited at the culture collection of the Center for Medical Mycology. Tested isolates included: Candida albicans, C. glabrata, C. guilliermondii, C. krusei, C. lipolytica, C. lusitaniae, C. parapsilosis, C. tropicalis and Malassezia furfur. Dermatophyte strains included Trichophyton rubrum, T. mentagrophytes, T. tonsurans, T. terrestre, Epidermophyton floccosum, Microsporum canis, M. cookie, M. gallinae, M. gypseum, and M. vanbreuseghemii. […] The plates were then streaked with an inoculating loop to remove the cells from the drug source.

M. cookie = experiment: In vitro antifungal activity vs. dermatophytes (MIC/MFC); type: cell-based; conditions: M. cookie (n = 1)
C. lipolytica = experiment: In vitro antifungal activity vs. yeasts (MIC/MFC); type: cell-based; conditions: Yarrowia lipolytica, C. lipolytica (n = 1)
ergosterol biosynthesis = experiment: 13C-acetate incorporation into ergosterol; type: cell-based, Candida albicans; conditions: drug at about its MIC, added after the first 15 minutes
Escherichia coli 700 = experiment: In vitro Antibacterial Activity; type: cell-based
[3] = In vitro Mammalian Cell Cytotoxicity; type: cell-based; conditions: African green monkey, Vero cells
C. albicans [4] = experiment: Mice infected systemically with C. albicans, oral dosing, kidney burden; type: in vivo; conditions: orally twice daily for 3 days, vs untreated
Method: Mice were infected systemically with C. albicans. Compound IV″ was administered orally twice daily for 3 days at 5 mg/kg or 10 mg/kg per dose. Kidney fungal burden decreased by 88% and 94% respectively, compared to the untreated control (as shown in FIG. 12 showing kidney fungal burden as determined by colony forming units (CFU) per gram of homogenised tissue).

OLE1 = OLE1 expression by real time PCR; type: cell-based, C. albicans; conditions: 250 ng/ml; 120 min; vs drug free control
Method: Numbers indicate time intervals in minutes. Expression values are normalized to TUB1 and given as multiples of OLE1 expression at 10 minutes in ethanol.
Similarly, the expression of OLE1 in C. albicans was investigated in response to compound IV″. In the presence of 250 ng/ml Compound IV, OLE1 transcript levels were increased 4-fold after 120 min incubation time compared to the drug free control. […] Expression values are normalised to TUB1 and given as multiples of OLE1 expression at 10 minutes in ethanol.

C. tropicalis = experiment: Susceptibility of clinical isolates (MIC, broth dilution); type: cell-based
Method: (§1) The efficacy of compound IV″ was investigated on 563 clinical isolates of 33 human fungal pathogens. […] For species with n≧10, the MIC90 (MIC, minimal inhibitory concentration) is given as ng/ml. For species with n≦10, the MIC range is given as ng/ml. 24 h and 48 h reads are indicated (Table 1).
(§2) The in vitro efficacy of antifungal compounds is determined in susceptibility assays, which are indicative for the spectrum and potency of a compound. Susceptibilities are reported as minimal inhibitory concentrations (MIC, as ng/ml or μg/ml) required to inhibit growth to a defined degree compared to the drug free control. The MIC90 defines the MIC required to inhibit growth for ≧90% of the strains of a population tested.
(§3) The MIC90 was calculated for the indicated species.

C. dubliniensis = experiment: as above; type: cell-based
Method: as §1, §2, §3

C. krusei = experiment: as above; type: cell-based
Method: as §1, §2, §3

C. albicans [5] = experiment: as above; type: cell-based
Method: as §1, §2, §3

C. glabrata = experiment: as above; type: cell-based
Method: as §1, §2, §3

C. parapsilosis = experiment: as above; type: cell-based
Method: as §1, §2, §3

C. lusitaniae = experiment: as above; type: cell-based
Method: as §1, §2, §3

Compound: O=C(O)CCCCCCC/C=C\C#CC#Cc1ccco1 [Compound III″]
- Fungicidal Concentration (Candida albicans; Candida albicans): 0.4 ng/mL
- MIC90 (Candida albicans; Candida albicans, 24 h, read-out: MIC90 24 h): 0.4 ng/mL (≈ 1.41 nM)
- MIC90 (Candida albicans; Candida albicans, 48 h, read-out: MIC90 48 h): 0.4 ng/mL (≈ 1.41 nM)
- remaining organisms (Candida albicans; growth-negative samples after 24 hr incubation, subcultured): < 5 cfu/ml
- MFC (C. guilliermondii): 0.5 ng/mL (≈ 1.76 nM)
- MIC (C. guilliermondii; 90% inhibition endpoint): < 0.06 ng/mL
- MFC range against dermatophytes (all dermatophyte strains): <0.06 to 16000 ng/mL
- MIC range against all dermatophyte strains (all dermatophyte strains): <0.06 to 1000 ng/mL
- MIC90 [1]: 12500 ng/mL (≈ 44000 nM)
- MIC90/MIC range 48 h (T. rubrum; MIC90, 48 h): <0.06 ng/mL
- MIC (T. rubrum; Trichophyton rubrum, 96 h, 35° C., 4 days): < 0.06 ng/mL
- MFC (T. rubrum; Trichophyton rubrum): < 0.06 ng/mL
- MIC (Microsporum canis; 96 h, 35° C., 4 days): < 0.06 ng/mL
- MFC (Microsporum canis): 0.5 ng/mL (≈ 1.76 nM)
- MIC90/MIC range 48 h (Microsporum canis; MIC90, 48 h): <0.06 ng/mL
- MIC90/MIC range 48 h ([2]; T. rubrum, Terbinafine resistant isolates (n = 9), 48 h): <0.06 ng/mL
- MIC ([2]; Trichophyton rubrum, 96 h, T. rubrum (TERB-resistant) (n = 9), 35° C., 4 days): < 0.06 ng/mL
- MFC ([2]; Trichophyton rubrum, T. rubrum (TERB-resistant) (n = 9)): < 0.06 ng/mL
- MIC (Trichophyton tonsurans; 96 h, 35° C., 4 days): < 0.06 ng/mL
- MFC (Trichophyton tonsurans): < 0.06 ng/mL
- MIC90/MIC range 48 h (Trichophyton tonsurans; MIC90, 48 h): <0.06 ng/mL
- MFC range against yeasts (yeasts): <0.06 to 32000 ng/mL
- MIC (M. cookie; 96 h, 35° C., 4 days): 1000 ng/mL (≈ 3520 nM)
- MFC (M. cookie): 2000 ng/mL (≈ 7030 nM)
- MIC90/MIC range 48 h (M. cookie; 48 h): 1000 ng/mL (≈ 3520 nM)
- MFC (C. lipolytica): < 0.06 ng/mL
- MIC (C. lipolytica; 90% inhibition endpoint, read-out: MIC): < 0.06 ng/mL
- net biosynthesis of ergosterol (13C-acetate incorporation) (ergosterol biosynthesis): did not significantly inhibit the net biosynthesis of ergosterol
- MIC90 (Escherichia coli 700): > 200000 ng/mL
- CC50 [3]: 46000 ng/mL (≈ 162000 nM)

Compound: O=C([O-])CCCCCCC/C=C\C#CC#Cc1ccco1.[K+] [Compound IV″, potassium (Z)-14-(furan-2-yl)tetradeca-9-en-11,13-diynoate]
- decrease of kidney fungal burden (C. albicans [4]; 5 mg/kg per dose): 88%
- decrease of kidney fungal burden (C. albicans [4]; 10 mg/kg per dose): 94%
- increase of OLE1 transcript levels (OLE1): 4 fold
- MIC90/MIC range 48 h (C. tropicalis; C. tropicalis (n = 35), MIC90, 48 h): 5 ng/mL
- MIC90 (C. tropicalis; Candida tropicalis, 24 h): 5 ng/mL
- MIC90/MIC range 48 h (C. dubliniensis; C. dubliniensis (n = 25), MIC90, 48 h): 2.5 ng/mL
- MIC90 (C. dubliniensis; Candida dubliniensis, 24 h): 2.5 ng/mL
- MIC90/MIC range 48 h (C. krusei; C. krusei (n = 27), MIC90, 48 h): 20 ng/mL
- MIC90 (C. krusei; Pichia kudriavzevii, 24 h): 20 ng/mL
- MIC90/MIC range 48 h (C. albicans [5]; C. albicans (n = 20), MIC90, 48 h): 2.5 ng/mL
- MIC90 (C. albicans [5]; Candida albicans, 24 h): 2.5 ng/mL
- MIC90/MIC range 48 h (C. glabrata; C. glabrata (n = 25), MIC90, 48 h): 20 ng/mL
- MIC90 (C. glabrata; Nakaseomyces glabratus, 24 h): 20 ng/mL
- MIC90/MIC range 48 h (C. parapsilosis; C. parapsilosis (n = 37), MIC90, 48 h): 1024 ng/mL
- MIC90 (C. parapsilosis; Lodderomyces parapsilosis, 24 h): 1020 ng/mL
- MIC50 (C. parapsilosis; Lodderomyces parapsilosis, 24 h, read-out: calculated MIC50): 128 ng/mL
- MIC90/MIC range 48 h (C. lusitaniae; C. lusitaniae (n = 24), MIC90, 48 h): 128 ng/mL
- MIC90 (C. lusitaniae; Clavispora lusitaniae, 24 h): 128 ng/mL

Reference: patent publication US8722910B2, “Diyne compositions” (Evolva AG, priority 2009, dated 2014)
